Where two headings read alike, the source gives them in different places.
Experiments:
dopamine D2 receptors [1] = target: T1, dopamine D2 receptors (Homo sapiens (Human), UniProt P14416); test: Affinity for dopamine D2 receptors, radioligand competition with [3H]-Methylspiperone; format: binding; conditions: 293T membrane transiently expressing D2
Description: The affinity of the compounds of the present disclosure for the dopamine D2 receptors was determined by the method of radioligand competition experiment. In the first step, a cell membrane component containing specific dopamine D2 receptors was prepared. A 10 cm culture dish was used for transfection with 10 ng of the dopamine D2 receptors and 40 μL of polyethylenimine (PEI hereafter). After 48 hours, the 10 cm culture dish was taken out from the cell culture incubator and the cultured cells had expressed the dopamine D2 receptors. A vacuum pump was used to suck off the culture medium, 3 mL of lysis buffer was added to each culture dish, and the cells were placed in a 4° C. cold room for 10 minutes. After the cells were detached, the cells were transferred to a 15 mL centrifuge tube and centrifuged at 1500 rpm for 5 minutes at 4° C., and the supernatant was discarded. The cell pellet was transferred to a tissue homogenizer, and 3 mL of lysis buffer was added and fully ground until the cells were broken. Then, cell suspension was equally aliquoted into several EP tubes, centrifuged at 12000 rpm for 5 minutes at 4° C., and the supernatant was discarded. The precipitate was the cell membrane component containing the dopamine D2 receptors. […] First, a standard binding buffer was added to the cell membrane component containing the dopamine D2 receptors, and the cell membrane was disrupted and resuspended with an electric tissue homogenizer. 30 μL of membrane protein suspension was added to each well of a 96-well plate. Then, 30 μL of different drugs were added to the 96-well plate sequentially from bottom to top to ensure that the final drug concentrations were 10^−5 M, 10^−6 M, 10^−7 M, 10^−8 M, 10^−9 M, and 0 M, with two replicates per treatment. Next, 30 μL of [3H]-Methylspiperone was added to each well of the 96-well plate. The plate was incubated for 2 hours at room temperature in the dark. Detection was conducted. The machine readout value reflected the amount of [3H]-Methylspiperone bound on the membrane, and after further data processing, the affinity Ki values of different compounds for the dopamine D2 receptors were obtained.

dopamine D2 receptors [2] = target: T1, dopamine D2 receptors; test: Dopamine D2 receptor Gαi1 BRET (G protein trimer dissociation); format: cell-based; conditions: for Emax: read-out: Gαi1 BRET (Emax %);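 as to all read-outs here: transfected cells co-expressing D2 receptor, Gαi1-Rluc, Gβ3 and Gγ9-GFP, BRET with coelenterazine 400a at 5 µM read as G protein trimer dissociation, graded drug concentrations in duplicate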
Description: (§1) To examine the downstream G protein signaling pathway mediated by dopamine D2 receptors, on the first day, a 6 cm culture dish was used for transfection with 1 μg of dopamine D2 receptors, 1 μg of Gαi1 containing a C-terminal seaweed luciferase (Gαi1-Rluc), 1 μg of Gβ3, 1 μg of Gγ9 containing C-terminal green fluorescent protein (Gγ9-GFP), and 16 μL of PEI. At the same time, in order to examine the downstream β-arrestin2 signaling pathway mediated by dopamine D2 receptors, on the first day, a 6 cm culture dish was used for transfection with 500 μg of dopamine D2 receptors containing C-terminal seaweed luciferase (D2-Rluc), 500 μg of G protein-coupled receptor kinase 2 (GRK2), 2500 μg of β-arrestin2 containing N-terminal green fluorescent protein (GFP2-ARRB2) mixed with 14 μL of PEI. The next day, the confluent cells of a 6 cm culture dish were digested and reseeded into a 96-well plate with 100 μL of culture medium added to each well. On the third day, the drugs were added for test. The 96-well plate was taken out from the cell incubator to decant the culture medium, 40 μL of the substrate coelenterazine 400a (final concentration of 5 μM) was added to each well, and then 20 μL of different drugs were added sequentially from left to right to ensure that the final concentration of the drug decreased gradually from bottom to top, with two replicates per treatment. Finally, the prepared samples were loaded on machine for test. The machine readout value reflected the recruitment of β-arrestin2 to the membrane or the dissociation of G protein trimer. The former indicated the degree of activation of the β-arrestin2 signaling pathway downstream of the dopamine D2 receptors, and the latter indicated the degree of activation of the G protein signaling pathway downstream of the dopamine D2 receptors.

dopamine D2 receptors [3] = target: T1, dopamine D2 receptors; test: Dopamine D2 receptor β-arrestin2 BRET (recruitment); format: cell-based; conditions: for Emax: read-out: β-arrestin2 BRET (Emax %);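 as to all read-outs here: cells co-expressing Rluc-fused D2 receptor, GRK2 and GFP2-fused β-arrestin2, BRET read with coelenterazine 400a after adding drug over a concentration series, in duplicate wells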
Description: as §1

5-HT2A receptor [4] = target: T2, 5-HT2A receptor (Homo sapiens (Human), UniProt P28223); test: Affinity for 5-HT2A receptors, radioligand competition with [3H]-ketanserin; format: binding; conditions: 293T membrane transiently expressing 5-HT2A
Description: The affinity of the compounds of the present disclosure for the 5-HT2A receptors was determined by the method of radioligand competition experiment. In the first step, a cell membrane component containing specific 5-HT2A receptor was prepared. A 10 cm dish was used for transfection with 10 ng of the 5-HT2A receptor and 40 μL of PEI. After 48 hours, the 10 cm dish was taken out from the cell incubator and the cultured cells had expressed the 5-HT2A receptor. A vacuum pump was used to suck off the culture medium, 3 mL of lysis buffer was added to each culture dish, and the cells were placed in a 4° C. cold room for 10 minutes. After the cells were detached, the cells were transferred to a 15 mL centrifuge tube and centrifuged at 1500 rpm for 5 minutes at 4° C., and the supernatant was discarded. The cell pellet was transferred to a tissue homogenizer, and 3 mL of lysis buffer was added and fully ground until the cells were broken. Then, cell suspension was equally aliquoted into several EP tubes, centrifuged at 12000 rpm for 5 minutes at 4° C., and the supernatant was discarded. The precipitate was the cell membrane component containing the 5-HT2A receptor. […] First, a standard binding buffer was added to the cell membrane component containing the 5-HT2A receptor, and the cell membrane was disrupted and resuspended with an electric tissue homogenizer. 30 μL of membrane protein suspension was added to each well of a 96-well plate. Then, 30 μL of different drugs were added to the 96-well plate sequentially from bottom to top to ensure that the final drug concentrations were 10^−5 M, 10^−6 M, 10^−7 M, 10^−8 M, 10^−9 M, and 0 M, with two replicates per treatment. Next, 30 μL of [3H]-ketanserin was added to each well of the 96-well plate. The plate was incubated for 2 hours at room temperature in the dark. Detection was conducted. The machine readout value reflected the amount of [3H]-ketanserin bound on the membrane, and after further data processing, the affinity Ki values of different compounds for the 5-HT2A receptor were obtained.

5-HT2A receptor [5] = target: T2, 5-HT2A receptor; test: 5-HT2A receptor Gαq BRET (G protein trimer dissociation); format: cell-based; conditions: for Emax: read-out: Gαq BRET (Emax %);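 as to all read-outs here: cells transfected with 5-HT2A receptor, Gαq-Rluc, Gβ3 and Gγ9-GFP, BRET read with coelenterazine 400a (5 µM) across a compound dilution series in duplicate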
Description: (§2) To examine the downstream G protein signaling pathway mediated by 5-HT2A receptors, on the first day, a 6 cm culture dish was used for transfection with 1 μg of 5-HT2A receptors, 1 μg of Gαq containing C-terminal seaweed luciferase (Gαq-Rluc), 1 μg of Gβ3, 1 μg of Gγ9 containing C-terminal green fluorescent protein (Gγ9-GFP), and 16 μL of PEI. At the same time, in order to examine the downstream β-arrestin2 signaling pathway mediated by 5-HT2A receptors, on the first day, a 6 cm culture dish was used for transfection with 500 μg of 5-HT2A receptors containing C-terminal seaweed luciferase (5-HT2A-Rluc), 500 μg of G protein-coupled receptor kinase 2 (GRK2), 2500 μg of β-arrestin2 containing N-terminal green fluorescent protein (GFP2-ARRB2), and 14 μL of PEI. The next day, the confluent cells of a 6 cm culture dish were digested and reseeded into a 96-well plate with 100 μL of culture medium was added to each well. On the third day, the drugs were added for test. The 96-well plate was taken out from the cell incubator to decant the culture medium, 40 μL of the substrate coelenterazine 400a (final concentration of 5 μM) was added to each well, and then 20 μL of different drugs were added sequentially from left to right to ensure that the final concentration of the drug decreased gradually from bottom to top, with two replicates per treatment. Finally, the prepared samples were loaded on machine for test. The machine readout value reflected the recruitment of β-arrestin2 to the membrane or the dissociation of G protein trimer. The former indicated the degree of activation of the β-arrestin2 signaling pathway downstream of the 5-HT2A receptors, and the latter indicated the degree of activation of the G protein signaling pathway downstream of the 5-HT2A receptors.

5-HT2A receptor [6] = target: T2, 5-HT2A receptor; test: 5-HT2A receptor β-arrestin2 BRET (recruitment); format: cell-based;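 also: cells co-expressing Rluc-tagged 5-HT2A receptor, GRK2 and GFP2-tagged β-arrestin2, read by BRET with coelenterazine 400a (5 µM) across graded drug concentrations in duplicate, signal reflecting β-arrestin2 membrane recruitment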
Description: as §2

5-HT1A receptor [7] = target: T3, 5-HT1A receptor (Homo sapiens (Human), UniProt P08908); test: Affinity for 5-HT1A receptors, radioligand competition with [3H]-LSD; format: binding;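 also: membranes from cells transiently transfected with 5-HT1A receptor, bound [3H]-LSD displaced by compound at 10^-9 to 10^-5 M, 2 h incubation at room temperature in the dark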
Description: (§3) The affinity of the compounds of the present disclosure for the 5-HTIA receptors was determined by the method of radioligand competition experiment. In the first step, a cell membrane component containing specific 5-HTIA receptor was prepared. A 10 cm culture dish was used for transfection with 10 ng of the 5-HTIA receptor and 40 μL of PEI. After 48 hours, the 10 cm culture dish was taken out from the cell incubator and the cultured cells had expressed the 5-HTIA receptor. A vacuum pump was used to suck off the culture medium, 3 mL of lysis buffer was added to each culture dish, and the cells were placed in a 4° C. cold room for 10 minutes. After the cells were detached, the cells were transferred to a 15 mL centrifuge tube and centrifuged at 1500 rpm for 5 minutes at 4° C., and the supernatant was discarded. The cell pellet was transferred to a tissue homogenizer, and 3 mL of lysis buffer was added and fully ground until the cells were broken. Then, cell suspension was equally aliquoted into several EP tubes, centrifuged at 12000 rpm for 5 minutes at 4° C., and the supernatant was discarded. The precipitate was the cell membrane component containing the 5-HT1A receptor. […] First, a standard binding buffer was added to the cell membrane component containing the 5-HT1A receptor, and the cell membrane was disrupted and resuspended with an electric tissue homogenizer. 30 μL of membrane protein suspension was added to each well of a 96-well plate. Then, 30 μL of different drugs were added to the 96-well plate sequentially from bottom to top to ensure that the final drug concentrations were 10^−5 M, 10^−6 M, 10^−7 M, 10^−8 M, 10^−9 M, and 0 M, with two replicates per treatment. Next, 30 μL of [3H]-LSD was added to each well of the 96-well plate. The plate was incubated for 2 hours at room temperature in the dark. Detection was conducted. The machine readout value reflected the amount of [3H]-LSD bound on the membrane, and after further data processing, the affinity Ki values of different compounds for the 5-HTIA receptor were obtained. To examine the downstream G protein signaling pathway mediated by 5-HTIA receptors, on the first day, a 6 cm culture dish was used for transfection with 1 μg of 5-HTIA receptors, 1 μg of Gαi1 containing C-terminal seaweed luciferase (Gαi1-Rluc), 1 μg of Gβ3, 1 μg of Gγ9 containing C-terminal green fluorescent protein (Gγ9-GFP), and 16 μL of PEI. The next day, the confluent cells of a 6 cm culture dish were digested and reseeded into a 96-well plate with 100 μL of culture medium was added to each well. On the third day, the drugs were added for test. The 96-well plate was taken out from the cell incubator to decant the culture medium, 40 μL of the substrate coelenterazine 400a (final concentration of 5 μM) was added to each well, and then 20 μL of different drugs were added sequentially from left to right to ensure that the final concentration of the drug decreased gradually from bottom to top, with two replicates per treatment. Finally, the prepared samples were loaded on machine for test. The machine readout value reflected the dissociation of G protein trimer, and thereby indicated the degree of activation of the G protein signaling pathway downstream of the 5-HTIA receptors.

5-HT1A receptor [8] = target: T3, 5-HT1A receptor; test: 5-HT1A receptor Gαi1 BRET (G protein trimer dissociation); format: cell-based;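 also: cells transiently co-expressing 5-HT1A receptor, luciferase-tagged Gαi1, Gβ3 and GFP-tagged Gγ9, seeded in 96-well plates for BRET measurement of G protein signaling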
Description: as §3

[9] = 5-HT2A receptor, β-arrestin2 pathway
[10] = 5-HT1A receptor, G protein pathway
[11] = 5-HT2A receptor, G protein pathway, read-out: Gαq BRET EC50
[12] = 5-HT2A receptor, β-arrestin2 pathway, read-out: β-arrestin2 BRET EC50
[13] = 293T membrane transiently expressing 5-HT1A, [3H]-LSD, read-out: 5-HT1A affinity Ki
[14] = 5-HT1A receptor, G protein pathway, read-out: Gαi1 BRET EC50
[15] = D2 receptor, G protein pathway, read-out: Gαi1 BRET EC50
[16] = D2 receptor, β-arrestin2 pathway, read-out: β-arrestin2 BRET EC50

T1 sequence (P14416 whole entry): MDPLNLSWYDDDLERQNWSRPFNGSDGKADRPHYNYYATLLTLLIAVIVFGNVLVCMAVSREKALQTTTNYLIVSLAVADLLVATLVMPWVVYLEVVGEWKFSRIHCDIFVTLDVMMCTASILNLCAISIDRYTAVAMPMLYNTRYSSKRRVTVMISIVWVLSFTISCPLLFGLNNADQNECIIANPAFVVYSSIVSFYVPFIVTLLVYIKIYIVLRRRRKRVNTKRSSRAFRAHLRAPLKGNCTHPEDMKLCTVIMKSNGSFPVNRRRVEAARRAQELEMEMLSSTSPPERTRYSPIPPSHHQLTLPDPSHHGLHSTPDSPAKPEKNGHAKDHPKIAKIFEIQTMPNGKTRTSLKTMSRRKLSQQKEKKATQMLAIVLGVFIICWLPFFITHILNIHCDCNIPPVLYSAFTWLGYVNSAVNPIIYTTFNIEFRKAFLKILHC
T3 sequence (P08908 whole entry): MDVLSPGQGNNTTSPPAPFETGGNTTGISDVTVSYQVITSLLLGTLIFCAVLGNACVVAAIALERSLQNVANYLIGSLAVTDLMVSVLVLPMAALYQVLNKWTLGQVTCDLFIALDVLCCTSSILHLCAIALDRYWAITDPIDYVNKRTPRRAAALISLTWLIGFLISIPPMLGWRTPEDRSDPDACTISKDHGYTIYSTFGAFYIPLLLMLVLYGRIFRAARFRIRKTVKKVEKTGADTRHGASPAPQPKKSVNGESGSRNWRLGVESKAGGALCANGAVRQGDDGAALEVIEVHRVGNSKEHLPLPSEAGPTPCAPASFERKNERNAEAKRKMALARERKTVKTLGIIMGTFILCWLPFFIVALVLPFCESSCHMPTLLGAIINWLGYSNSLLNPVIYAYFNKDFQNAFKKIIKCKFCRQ
T2 sequence (P28223 whole entry): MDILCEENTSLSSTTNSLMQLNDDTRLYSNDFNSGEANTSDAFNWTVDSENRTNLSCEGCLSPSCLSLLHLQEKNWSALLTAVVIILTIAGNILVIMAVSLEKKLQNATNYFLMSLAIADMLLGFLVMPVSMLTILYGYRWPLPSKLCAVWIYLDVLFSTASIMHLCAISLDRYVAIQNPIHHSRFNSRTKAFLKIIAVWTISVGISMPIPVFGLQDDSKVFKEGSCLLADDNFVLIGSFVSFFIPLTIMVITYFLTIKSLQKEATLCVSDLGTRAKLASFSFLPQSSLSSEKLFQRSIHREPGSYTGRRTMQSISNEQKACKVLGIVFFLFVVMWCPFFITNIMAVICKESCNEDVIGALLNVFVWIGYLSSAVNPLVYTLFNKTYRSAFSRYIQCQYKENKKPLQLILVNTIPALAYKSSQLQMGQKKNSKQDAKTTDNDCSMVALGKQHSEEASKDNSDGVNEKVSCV

## OCCN1CCN2c3cccc4scc(c34)CC2C1 (stereo not shown) [Compound I-3, 2-(6a,7,9,10-Tetrahydropyrazino[1,2-a]Thieno [4,3,2-De]Quinolin-8 (6H)-Yl) Ethan-1-Ol]
Dopamine D2 receptors [1]
  Ki: > 10000 nM
Dopamine D2 receptors [2]
  EC50: 40.7 nM
  Emax: 22.5%
Dopamine D2 receptors [3]
  EC50: 189 nM
  Emax: 14.2%
5-HT2A receptor [4]
  Ki: 4130 nM
5-HT2A receptor [5]
  EC50: 1520 nM
  Emax: 43.6%
5-HT2A receptor [6]
  EC50: 638 nM
5-HT2A receptor [6]; [9]
  Emax: 90%
5-HT1A receptor [7]
  Ki: 4410 nM
5-HT1A receptor [8]
  EC50: 24200 nM
5-HT1A receptor [8]; [10]
  Emax: 62%

## O=C(NCCN1CCN2c3cccc4scc(c34)CC2C1)C1CCOCC1 (stereo not shown) [Compound I-14, N-(2-(6a,7,9,10-Tetrahydropyrazino[1,2-a]Thieno [4,3,2-De]Quinolin-8 (6H)-Yl)Ethyl)Tetrahydro-2H-Pyran-4-Carboxamide]
Dopamine D2 receptors [1]
  Ki: > 10000 nM
5-HT2A receptor [4]
  Ki: 1190 nM
5-HT2A receptor [5]; 5-HT2A receptor, G protein pathway
  Gαq BRET (Emax %): (29.10%)
5-HT2A receptor [5]; [11]
  EC50: 475 nM
5-HT2A receptor [6]; [9]
  β-arrestin2 BRET (Emax %): (21.00%)
5-HT2A receptor [6]; [12]
  EC50: 123 nM
5-HT1A receptor [7]; [13]
  Ki: 1300 nM
5-HT1A receptor [8]; [10]
  Emax: 86%
5-HT1A receptor [8]; [14]
  EC50: 2000 nM

## O=C(N[C@H]1CC[C@H](CCN2CCN3c4cccc5scc(c45)CC3C2)CC1)N1CCCCC1 (stereo partly drawn) [Compound I-29, N-(4-(2-(6a,7,9,10-Tetrahydropyrazino[1,2-a]Thieno [4,3,2-De]Quinolin-8 (6H)-Yl)Ethyl) Trans-Cyclohexyl) Piperidine-1-Carboxamide]
Dopamine D2 receptors [1]
  Ki: 180 nM
Dopamine D2 receptors [2]; [15]
  EC50: 32.2 nM
Dopamine D2 receptors [2]
  Emax: 45.2%
Dopamine D2 receptors [3]; [16]
  EC50: 102 nM
Dopamine D2 receptors [3]
  Emax: 31.8%
5-HT2A receptor [4]
  Ki: 450 nM
5-HT2A receptor [5]; [11]
  EC50: 299 nM
5-HT2A receptor [5]
  Emax: 8.61%
5-HT2A receptor [6]; [9]
  Emax: 21.8%
5-HT2A receptor [6]; [12]
  EC50: 30.2 nM
5-HT1A receptor [7]; [13]
  Ki: 120 nM
5-HT1A receptor [8]; [10]
  Emax: 62%
5-HT1A receptor [8]; [14]
  EC50: 1480 nM

## Fc1ccc(-c2cncc(CN3CCN4c5cccc6scc(c56)CC4C3)c2)cc1 (stereo not shown) [Compound I-8, 8-((5-(4-Fluorophenyl)Pyridin-3-Yl)Methyl)-6,6a,7,8,9,10-Hexahydropyrazino[1,2-a]Thieno [4,3,2-De]Quinoline]
Dopamine D2 receptors [1]
  Ki: 440 nM
Dopamine D2 receptors [2]; [15]
  EC50: 531 nM
Dopamine D2 receptors [2]
  Emax: 15.9%
Dopamine D2 receptors [3]; [16]
  EC50: 371 nM
Dopamine D2 receptors [3]
  Emax: 14.1%
5-HT2A receptor [4]
  Ki: 1460 nM
5-HT2A receptor [5]; [11]
  EC50: 4540 nM
5-HT2A receptor [5]
  Emax: 21%
5-HT2A receptor [6]; [9]
  Emax: 84.2%
5-HT2A receptor [6]; [12]
  EC50: 1290 nM
5-HT1A receptor [7]; [13]
  Ki: 9850 nM
5-HT1A receptor [8]; [10]
  Emax: 53%
5-HT1A receptor [8]; [14]
  EC50: 16300 nM

## O=C1c2ccccc2CN1CCCCN1CCN2c3cccc4scc(c34)CC2C1 (stereo not shown) [Compound I-22, 2-(4-(6a,7,9,10-Tetrahydropyrazino[1,2-a]Thieno [4,3,2-De]Quinolin-8 (6H)-Yl)Butyl) Isoindolin-1-One]
Dopamine D2 receptors [1]
  Ki: 490 nM
Dopamine D2 receptors [2]; [15]
  EC50: 161 nM
Dopamine D2 receptors [2]
  Emax: 37%
Dopamine D2 receptors [3]; [16]
  EC50: 328 nM
Dopamine D2 receptors [3]
  Emax: 24.8%
5-HT2A receptor [4]
  Ki: 1200 nM
5-HT2A receptor [5]; [11]
  EC50: 966 nM
5-HT2A receptor [5]
  Emax: 13.8%
5-HT2A receptor [6]; [9]
  Emax: 64.6%
5-HT2A receptor [6]; [12]
  EC50: 3470 nM
5-HT1A receptor [7]; [13]
  Ki: 350 nM
5-HT1A receptor [8]; [10]
  Emax: 87%
5-HT1A receptor [8]; [14]
  EC50: 1470 nM

## CN(C)C(=O)N[C@H]1CC[C@H](CCN2CCN3c4cccc5scc(c45)CC3C2)CC1 (stereo partly drawn) [Compound I-27, 1,1-Dimethyl-3-(4-(2-(6a, 7,9,10-Tetrahydropyrazino[1,2-a]Thieno [4,3,2-De]Quinolin-8 (6H)-Yl)Ethyl) Trans-Cyclohexyl) Urea]
Dopamine D2 receptors [1]
  Ki: 80 nM
Dopamine D2 receptors [2]; [15]
  EC50: 3.87 nM
Dopamine D2 receptors [2]
  Emax: 73.6%
Dopamine D2 receptors [3]; [16]
  EC50: 10.2 nM
Dopamine D2 receptors [3]
  Emax: 52.1%
5-HT2A receptor [4]
  Ki: 210 nM
5-HT2A receptor [5]; [11]
  EC50: 158 nM
5-HT2A receptor [5]
  Emax: 9.57%
5-HT2A receptor [6]; [9]
  Emax: 34.7%
5-HT2A receptor [6]; [12]
  EC50: 13.8 nM
5-HT1A receptor [7]; [13]
  Ki: 160 nM
5-HT1A receptor [8]; [10]
  Emax: 64%
5-HT1A receptor [8]; [14]
  EC50: 164 nM

## Fc1ccc(CCN2CCN3c4cccc5scc(c45)CC3C2)cc1 (stereo not shown) [Compound I-5, 8-(4-Fluorophenylethyl)-6,6a,7,8,9,10-Hexahydropyrazino[1,2-a]Thieno [4,3,2-De]Quinoline]
Dopamine D2 receptors [1]
  Ki: 7500 nM
Dopamine D2 receptors [2]; [15]
  EC50: 193 nM
Dopamine D2 receptors [2]
  Emax: 53.8%
Dopamine D2 receptors [3]; [16]
  EC50: 370 nM
Dopamine D2 receptors [3]
  Emax: 27.2%
5-HT2A receptor [4]
  Ki: 920 nM
5-HT2A receptor [5]
  Emax: 50%
5-HT2A receptor [5]; read-out: Gαq BRET EC50
  EC50: 1100 nM
5-HT2A receptor [6]; [9]
  Emax: 27.3%
5-HT2A receptor [6]; read-out: β-arrestin2 BRET EC50
  EC50: 946 nM
5-HT1A receptor [7]; [13]
  Ki: 280 nM
5-HT1A receptor [8]; [10]
  Emax: 91%
5-HT1A receptor [8]; [14]
  EC50: 3130 nM

## c1csc(CCN2CCN3c4cccc5scc(c45)CC3C2)c1 (stereo not shown) [Compound I-6, 8-(2-(Thiophen-2-Yl)Ethyl)-6,6a,7,8,9,10-Hexahydropyrazino[1,2-a]Thieno [4,3,2-De]Quinoline]
Dopamine D2 receptors [1]
  Ki: 5730 nM
Dopamine D2 receptors [2]
  EC50: 342 nM
  Emax: 58.4%
Dopamine D2 receptors [3]
  EC50: 299 nM
  Emax: 20.2%
5-HT2A receptor [4]
  Ki: 7250 nM
5-HT2A receptor [6]; [9]
  Emax: 45.4%
5-HT2A receptor [6]; [12]
  EC50: 8340 nM
5-HT1A receptor [7]; [13]
  Ki: 2730 nM
5-HT1A receptor [8]; [10]
  Emax: 90%
5-HT1A receptor [8]; [14]
  EC50: 3230 nM

## O=c1ccc2ccc(OCCCN3CCN4c5cccc6scc(c56)CC4C3)cc2[nH]1 (stereo not shown) [Compound I-17, 7-(3-(6a,7,9,10-Tetrahydropyrazino[1,2-a]Thieno [4,3,2-De]Quinolin-8 (6H)-Yl) Propoxy) Quinolin-2 (1H)-One]
Dopamine D2 receptors [1]
  Ki: 290 nM
Dopamine D2 receptors [2]; [15]
  EC50: 18.5 nM
Dopamine D2 receptors [2]
  Emax: 81.6%
Dopamine D2 receptors [3]; [16]
  EC50: 91.6 nM
Dopamine D2 receptors [3]
  Emax: 66.8%
5-HT2A receptor [4]
  Ki: 750 nM
5-HT2A receptor [5]; [11]
  EC50: 279 nM
5-HT2A receptor [5]
  Emax: 23.4%
5-HT2A receptor [6]; [9]
  Emax: 92.2%
5-HT2A receptor [6]; [12]
  EC50: 1270 nM
5-HT1A receptor [7]; [13]
  Ki: 340 nM
5-HT1A receptor [8]; [10]
  Emax: 86%
5-HT1A receptor [8]; [14]
  EC50: 754 nM

## COc1cc2c(cc1OC)C(=O)N(CCCCN1CCN3c4cccc5scc(c45)CC3C1)C2 (stereo not shown) [Compound I-23, 5,6-Dimethoxy-2-(4-(6a,7,9,10-Tetrahydropyrazino[1,2-a]Thieno [4,3,2-De]Quinolin-8 (6H)-Yl)Butyl) Isoindolin-1-One]
Dopamine D2 receptors [1]
  Ki: 750 nM
Dopamine D2 receptors [2]; [15]
  EC50: 282 nM
Dopamine D2 receptors [2]
  Emax: 61.9%
Dopamine D2 receptors [3]; [16]
  EC50: 130 nM
Dopamine D2 receptors [3]
  Emax: 38.5%
5-HT2A receptor [4]
  Ki: 160 nM
5-HT2A receptor [5]; [11]
  EC50: 245 nM
5-HT2A receptor [5]
  Emax: 18.9%
5-HT2A receptor [6]; [9]
  Emax: 138%
5-HT2A receptor [6]; [12]
  EC50: 8060 nM
5-HT1A receptor [7]; [13]
  Ki: 4130 nM
5-HT1A receptor [8]; [10]
  Emax: 71%
5-HT1A receptor [8]; [14]
  EC50: 6700 nM

## c1ccc(OCCN2CCN3c4cccc5scc(c45)CC3C2)cc1 (stereo not shown) [Compound I-15, 8-(2-Phenoxyethyl)-6,6a,7,8,9,10-Hexahydropyrazino[1,2-a]Thieno [4,3,2-De]Quinoline]
Dopamine D2 receptors [1]
  Ki: 5500 nM
Dopamine D2 receptors [2]; [15]
  EC50: 334 nM
Dopamine D2 receptors [2]
  Emax: 18.6%
Dopamine D2 receptors [3]; [16]
  EC50: 164 nM
Dopamine D2 receptors [3]
  Emax: 10.5%
5-HT2A receptor [4]
  Ki: 1710 nM
5-HT2A receptor [6]; [9]
  Emax: 10%
5-HT2A receptor [6]; [12]
  EC50: 1770 nM
5-HT1A receptor [7]; [13]
  Ki: 840 nM
5-HT1A receptor [8]; [10]
  Emax: 57%
5-HT1A receptor [8]; [14]
  EC50: 5260 nM

## CCCN1CCN2c3cccc4scc(c34)CC2C1 (stereo not shown) [Compound I-2, 8-Propyl-6,6a,7,8,9,10-Hexahydropyrazino[1,2-a]Thieno [4,3,2-De]Quinoline]
Dopamine D2 receptors [1]
  Ki: 380 nM
Dopamine D2 receptors [2]; [15]
  EC50: 747 nM
Dopamine D2 receptors [2]
  Emax: 12.1%
Dopamine D2 receptors [3]; [16]
  EC50: 19.3 nM
Dopamine D2 receptors [3]
  Emax: 27.6%
5-HT2A receptor [4]
  Ki: 710 nM
5-HT2A receptor [5]; [11]
  EC50: 2.41 nM
5-HT2A receptor [5]
  Emax: 7.6%
5-HT2A receptor [6]; [9]
  Emax: 66.3%
5-HT2A receptor [6]; [12]
  EC50: 298 nM
5-HT1A receptor [7]; [13]
  Ki: 3420 nM
5-HT1A receptor [8]; [10]
  Emax: 72%
5-HT1A receptor [8]; [14]
  EC50: 7720 nM

Source: patent US20240383913A1, “THIOPHENE RING COMPOUND, PREPARATION METHOD THEREFOR AND APPLICATION THEREOF” (CENTER FOR EXCELLENCE IN MOLECULAR CELL SCIENCE, CHINESE …, priority 2021, published 2024)
